The record followed here is patent US8946124B2, “Substituted 3-(biphenyl-3-yl)-8,8-difluoro-4-hydroxy-1-azaspiro[4.5]dec-3-en-2-ones for therapy and halogen-substituted spirocyclic ketoenols” (Bayer Intellectual Property GmbH, priority 2011, dated 2015).

The structures appear in SMILES notation.

Series [1] can be described thus: Octanol/water distribution coefficient (log P/D), isocratic HPLC method. The series is classed as physicochemical. The note with it: pH 7.4; mean (range, n); read-out: logP/D pH 7.4. The text has this: The distribution coefficient octanol/water P or D is a key parameter for estimating membrane penetration and permeability. It is defined as the ratio of the equilibrium concentrations of a substance in the two-phase system octanol/water.
[formula] P=partition D=distribution c(octanol)=concentration of the substance in the octanol phase c(water)=concentration of the substance in the aqueous phase
It is usually stated in form of the decadic logarithm (log P or log D).
log P describes the distribution behavior of a substance exclusively present in its neutral form. logD describes the distribution behavior of a substance at a certain pH; depending on the ionisation constant pKa of the substance, some of the substance may be present in ionic form, and some in neutral form.
The log P/D of the active compounds was determined using an isocratic HPLC method (HPLC=high performance liquid chromatography) (literature: OECD Guideline for Testing of Chemicals No. 117). The method is based on the correlation of the HPLC retention time of the test substance to that of reference substances with known distribution coefficients.
The test substance was employed as a 10 mM solution in DMSO (DMSO=dimethyl sulfoxide). 10 μl of this solution were made up to 100 μl with a methanol/water mixture in a ratio of 7+3.
The nine reference substances were dissolved individually in methanol. 100 μl each of the stock solutions were added to an HPLC vial and mixed with 300 μl of water.
A formamide solution was used to determine the hold-up time. To this end, 7 mg of formamide were dissolved in 10 ml of methanol. 100 μl of this stock solution were mixed with 500 μl of methanol and 200 μl of water.
All solutions were chromatographed using a flow rate of 1.00 ml/min.
Injection Protocol: formamide, references, test substance 1, test substance 2, . . . , formamide, references.
Evaluation of the retention times was carried out in a diode array detector (DAD) at 200-400 nm. Via the molecular mass, the identity of the test substance was checked using the downstream mass spectrometer.
The HPLC run was evaluated using the Waters software Masslynx 4.1.
The log P/D values were calculated using the software “POW Determination” (proprietary development).

Series [2] is described as follows: Pharmacokinetic parameters in the rat (i.v. and intragastric). The series is classed as in vivo. The note with it: intragastric vs. i.v. As for the experimental part:
For this, the test substances were applied in dissolved form both for intravenous, and for intragastric application, wherein compatible solubilizers such as PEG400 and/or ethanol were used in a compatible amount.
The test substances were applied at a dose of 0.1-1 mg/kg. Administration was as a bolus injection in the male rat and as an infusion in the female dog (15 min). At various time points after the bolus injection, and before and after the 15-minute infusion, blood samples of about 100-150 μl were removed via a catheter either from the jugular vein (rat) or from the saphenous vein (dog). Lithium-heparin was added as anticoagulant to the blood samples and they were stored in a refrigerator until required for further processing. After centrifugation of the samples for 15 min at 3000 rpm, an aliquot of 100 μl was taken from the supernatant (plasma) and was precipitated by adding 400 μl of cold ACN or methanol (absolute). The precipitated samples were frozen-out at […] overnight, then centrifuged again at 3000 rpm for 15 min, before 150 μl of the clear supernatant were removed to determine the concentration. The analysis was effected by means of an Agilent 1200 HPLC system with connected LCMS/MS detection. […]

The nature of series [3]: Maximum tolerated dose (MTD) in the mouse. The series is classed as in vivo. The note with it: female nude mice, 21 days. The method, then: The MTD was defined as the highest dose which could be administered without any animal dying during the treatment phase, and without any body weight loss of more than 10% compared to the initial weight.
Example 1-1 was administered to female nude mice (NMRI nu/nu):
(§1) Administration route: per os
• (Solutol HS15: polyoxyethylene ester of 12-hydroxystearic acid) Administration volume:10 ml/kg Protocol: see Table 7
The treatment phase was followed by an observation phase of 21 days.

Series [4] deals with PC-3 prostate carcinoma xenograft. The series can be described thus: In-vivo efficacy in the PC3 xenograft model in the mouse. The note with it: 17 days, 2 administrations per day; for T/C: final tumor weight. The method, then: as §1
Administration volume: 10 ml/kg

The test system of another series is Spodoptera frugiperda. Kind of series: Spodoptera frugiperda test (SPODFR spray treatment). The series is classed as in vivo. The note with it: 500 g/ha, after 7 days. The source says:
(§2) Solvents: 78.0 parts by weight of acetone

Another series relates to Myzus persicae. Kind of series: Myzus test (MYZUPE spray treatment). The series is classed as in vivo. The note with it: 500 g/ha, after 6 days.
Another series has as its system Tetranychus urticae. The series can be described thus: Tetranychus test, OP-resistant (TETRUR spray treatment). The series is classed as in vivo. The note with it: 100 g/ha, after 6 days. The method, then: as §2
After 6 days, the effect in % is determined.
Tetranychus Test, OP-Resistant (TETRUR Spray Treatment)

For another series, the system named is Phaedon cochleariae. Kind of series: Phaedon test (PHAECO spray treatment). The note with it: 500 g/ha, after 7 days.
Setting [5] is: 80 mg/kg day 1-3, 70 mg/kg from day 4 onwards, per os.

Take `Cc1ccc(-c2ccc(Cl)c(F)c2)cc1C1=C(O)C2(CCC(F)(F)CC2)NC1=O` [Example 1-1, 3-(4′-Chloro-3′-fluoro-4-methylbiphenyl-3-yl)-8,8-difluoro-4-hydroxy-1-azaspiro[4.5]dec-3-en-2-one]: in series [1], the chromatographic logD worked out at 1.9. The same molecule had a F in series [2] of 95%. Moreover, the Deaths is on record as 0 of 4 in series [3] (12.5 mg/kg per os, 1 administration per day); 0 of 4 in series [3] (25 mg/kg per os, 1 administration per day); 0 of 4 in series [3] (50 mg/kg per os, 1 administration per day); 0 of 4 in series [3] (50 mg/kg per os, 2 administrations per day); 0 of 4 in series [3] (75 mg/kg per os, 1 administration per day); 0 of 4 in series [3] (100 mg/kg per os, 1 administration per day). Moreover, the Deaths in series [4] (40 mg/kg per os) and in series [4] (setting [5]) was 0 of 9 throughout. Further, the T/C in series [4] (40 mg/kg per os) and in series [4] (setting [5]) was 0.26 each time. In the series with Spodoptera frugiperda, the “effect in % (caterpillars killed)” value is given as 100%. For the same molecule, the “effect in % (aphids killed)” value with Myzus persicae was 90%. Further, in the series on Tetranychus urticae, the “effect in % (spider mites killed)” value stood at 90%. In the series with Phaedon cochleariae, the “effect in % (beetle larvae killed)” value worked out at 100%.
